Assay: Pharmacokinetics (PK) test of immediate release formulation (capsule formulation) in human
Type: in vivo
Settings: healthy subjects; immediate release capsules, 0.1 to 340 mg; FIG. 11
Experimental: The immediate release formulations (capsule formulations) containing 0.1 mg, 1 mg, 5 mg, 20 mg, and 80 mg of the compound A were used in combinations as needed so that the dose of compound A became 0.1 mg, 1 mg, 3 mg, 10 mg, 30 mg, 100 mg, 160 mg, 240 mg, and 340 mg.

Q: With `Nc1nc(CC(=O)Nc2ccc(CCNC[C@H](O)c3ccccc3)cc2)cs1` [compound A, (R)-2-(2-aminothiazol-4-yl)-4′-[2-[(2-hydroxy-2-phenylethyl)amino]ethyl]acetic acid anilide] as the compound, how does the “relation between maximum plasma concentration (Cmax) and increase in heart rate from the base line” value read?
A: positive correlation

Reference: patent US11707451B2, “Pharmaceutical composition for modified release” (ASTELLAS PHARMA INC., priority 2010, dated 2023)
